Data: publication PMC6844378, “Structure activity relationship studies on Amb639752: toward the identification of a common pharmacophoric structure for DGKα inhibitors” (Journal of Enzyme Inhibition and Medicinal Chemistry, 2019)

Key:
DGKθ = target: T1, DGKθ (Homo sapiens, UniProt P52824); test: Isoform specificity, DGKθ homogenates of transfected 293T cells; format: biochemical; settings: 100 µM; 293T homogenates
T1 construct: expressed in transfected cells; host or cells: 293T cells, transient transfection (Lipofectamine 3000), crude homogenate
T1 sequence (P52824 1-942): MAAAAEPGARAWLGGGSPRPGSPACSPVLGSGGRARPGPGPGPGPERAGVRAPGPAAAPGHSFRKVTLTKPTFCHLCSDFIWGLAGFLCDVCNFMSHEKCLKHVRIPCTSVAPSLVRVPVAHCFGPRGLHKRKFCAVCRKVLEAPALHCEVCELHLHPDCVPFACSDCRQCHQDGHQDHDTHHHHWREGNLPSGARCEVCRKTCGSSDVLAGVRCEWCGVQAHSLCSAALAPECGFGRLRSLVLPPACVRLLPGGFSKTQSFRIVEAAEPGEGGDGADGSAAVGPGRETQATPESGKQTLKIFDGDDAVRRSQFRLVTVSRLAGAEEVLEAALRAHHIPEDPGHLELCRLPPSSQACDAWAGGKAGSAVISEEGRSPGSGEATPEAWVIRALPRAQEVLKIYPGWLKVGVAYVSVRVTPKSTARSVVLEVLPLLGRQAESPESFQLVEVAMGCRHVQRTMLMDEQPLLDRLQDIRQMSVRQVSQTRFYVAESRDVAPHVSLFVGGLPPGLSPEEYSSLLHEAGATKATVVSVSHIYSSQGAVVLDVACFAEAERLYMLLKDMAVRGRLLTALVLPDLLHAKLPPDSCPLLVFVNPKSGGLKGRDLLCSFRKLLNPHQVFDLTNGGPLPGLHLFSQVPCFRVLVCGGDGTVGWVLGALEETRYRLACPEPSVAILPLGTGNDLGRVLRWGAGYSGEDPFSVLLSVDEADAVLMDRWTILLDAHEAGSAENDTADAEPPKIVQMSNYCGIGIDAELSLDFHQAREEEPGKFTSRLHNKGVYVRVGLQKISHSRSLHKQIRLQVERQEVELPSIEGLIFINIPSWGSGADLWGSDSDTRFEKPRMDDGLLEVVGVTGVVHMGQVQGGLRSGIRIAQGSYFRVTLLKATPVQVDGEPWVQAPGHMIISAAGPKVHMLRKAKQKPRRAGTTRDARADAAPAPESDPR
Experimental: 293T cells were transiently transfected with indicated DGK isoform plasmid DNA using Lipofectamine 3000, Invitrogen (Carlsbad, CA). Forty eight hours after transfection, cells were harvested and homogenised with a 29 G-needle using 500 µL of homogenate buffer for each dish and immediately stored in aliquots at –80 °C. Cells transfected with empty vector were used as controls, overexpressed DGK has an activity >50 folds the endogenous.
Essentionally, the same procedure was followed as reported previously in Velnati et al.[9] In brief, DGK activity was assayed by measuring initial velocities (5 min at 27 °C) in presence of saturating substrate concentrations. Reaction conditions: 0.9 µg/µL 1,2-dioleoyl-sn-glycerol, 5 mM ATP, 0.01 µCi/µL [γ^32P]-ATP, 1 mM sodium orthovanadate, 10 mM MgCl2, 1.2 mM EGTA in 7.5 mM Hepes pH 8[12]. Reaction mixture is assembled mixing enzyme (24.5 µL of homogenate), 100× inhibitor or DMSO (0.5 µL), 5× ATP solution (10 µL of 25 mM ATP, 0.05 µCi/µL [γ^32P]-ATP (Perkin-Elmer, Milan, Italy), 5 mM sodium orthovanadate, 50 mM MgCl2), and 3.3× DAG solution (15 µL of 3 µg/µL 1,2-dioleoyl-sn-glycerol resuspended by sonication in 4 mM EGTA in 25 mM Hepes pH 8). […] TLC was run 10 cm and dried before radioactive signals were detected by GS-250 molecular imager and was quantified by quantity one (Bio-Rad, Hercules, CA) software assuring the absence of saturated spots. […]

MCF7 cells = test: Migration assay (serum induced wound healing); format: cell-based; settings: 10 µM, 15 h, in presence of serum, vs vehicle (DMSO)
Experimental: Michigan Cancer Foundation 7 (MCF7) cells were cultured in DMEM with 10% FBS + 1% penicillin/streptomycin and cultures were maintained by splitting them for every 2–3 days using trypsin–EDTA 0.25%.
Cell migration assays were performed using the Culture-Insert 2 well in µ-Dish (ibidi GmbH, Martinsried, Germany).
Briefly, 25,000 MCF7 cells were plated in each well and cultured for 24 h. The day after, the culture insert was removed and the cells were washed with PBS before treating them with respective DGKα inhibitors (10 µM) or DMSO for 15 h in complete medium (DMEM 10% FBS + 1% penicillin/streptomycin), while medium without FBS was used as a negative control for migration.
Phase-contrast pictures were taken immediately after treatment (0 h) and after 15 h under 5× magnification.
Finally, wound areas were determined using ImageJ software (NIH, , Bethesda, MD). Wound reduction was calculated by using the following formula: (wound area at 15 h/wound at 0 h)×100, the values obtained were expressed as the percentage of wound area compared to the initial area.
To evaluate if our newly synthetised DGKα inhibitors were effective in impairing cancer cell migration, we measured serum induced wound healing in MCF7 breast cancer cells in presence of 10 µM inhibitor. […]
Figure 10. […] Results are expressed as the percentage of wound area compared to the initial area. […]

Row | SMILES | effect on DGKθ activity (DGKθ) | cell migration (wound closure) (MCF7 cells)
1 | Cc1ccc2c(C(=O)CN3CCN(C(=O)c4ccco4)CC3)c(C)[nH]c2c1 [Amb639752] | do not have significant effects | 
2 | Cc1ccc2c(C(=O)CN3CCN(C(=O)c4ccc(Cl)cc4)CC3)c(C)[nH]c2c1 [Compound 11, 2-(4-(4-Chlorobenzoyl)piperazin-1-yl)-1-(2,6-dimethyl-1H-indol-3-yl)ethan-1-one] |  | reduce the migration
3 | Cc1ccc(C(=O)N2CCN(CC(=O)c3c(C)[nH]c4cc(C)ccc34)CC2)cc1 [Compound 20, 1-(2,6-Dimethyl-1H-indol-3-yl)-2-(4-(4-methylbenzoyl)piperazin-1-yl)ethan-1-one] | activator | reduce the migration
